The source of these data is US5882881A, “Inhibition of cyst formation by cytoskeletal specific drugs” (priority 1998, dated 1999).

The test system of one series is human ADPKD cells. As to the kind of experiment: In vitro cyst formation in human ADPKD cells. In kind it is cell-based. To be noted: human ADPKD cells; cytosine arabinoside 20 μg/ml, α-amanitin 100 ng/ml, cycloheximide 40 μg/ml, amiloride 1 mM, ouabain 0.5 mM, taxol 25 μM, colchicine 10 μM, vinblastine 1 μM, cytochalasins 10 μM. The source says:
I have substituted human ADPKD cells for the murine CPK cells of Example 1 and produced similar results. Other cyst-forming cells are believed to also form suitable results with only minor deviations from the conditions set forth in Example 1.
Cell suspensions were separated from debris by sedimentation at unit gravity and decantation. After washing once with DMEM/F12 medium, cells were suspended in DMEM/F12 supplemented with 1.2 gm/l sodium bicarbonate, 1× insulin, transferrin and selenium (Sigma # 11184), 1% lipids supplement (Sigma # L4646) and 1× antibiotic/antimycotic (Sigma # A7292) at a density of 5×10^4 cells per ml. Two mls of the cell suspension were aliquoted into each well of a six-well plastic cell culture plates that had been precoated with 2 mls of 1% low melting point agarose in DMEM/F12 and incubated at 37° C. in a humidified atmosphere of 5% CO2 in air.
I used the in vitro cyst formation system of the present invention to analyze compounds that affect the process of cyst formation. To determine the therapeutic effectiveness of an agent, cyst-forming cells are suspended in a medium to which the agent has been added. These cells are then cultured on a solid phase without formation of a layer of cells on the surface, such as in the assay system described in Example 1. The extent to which the cells actually form cysts can be detected and compared to the extent of cyst formation expected if no agent were added. If the amount of cyst formation is lower than expected, then the agent is a good candidate for therapeutic intervention of cystic diseases.

Another series has as its system homozygous cpk mice. Put plainly: Survival of cpk mice on weekly intraperitoneal treatment (Example 8, FIG. 2). Type of series: in vivo, mouse. The source says: Untreated and methotrexate (MTX) treated polycystic cpk mice all died before 30 days of age. Most polycystic cpk mice treated with weekly taxol survive more than 60 days. The dotted line starting at day 120 indicates the number and age of apparently healthy taxol treated polycystic mice that were sacrificed for histology studies. Pairs of mice were sacrificed at 120 days, 182 days and 210 days of age.
In order to determine whether taxol prevents cyst formation by inhibiting cell division, another drug known to have anti-mitotic activity, methotrexate, was tested for its ability to treat homozygous cpk mice. Six cpk mice were injected intraperitoneally with 15 μl of methotrexate solution (1.1 mg/ml in water) 10-12 days after birth and once every week thereafter. The methotrexate-injected mice survived until between 18 and 27 days after birth, with only one mouse living longer than 28 days. […] Therefore, the anti-mitotic activity of taxol cannot explain its ability to treat CPK mice having a polycystic-type kidney disease. Rather, the results from in vitro tests indicate that agents which interfere with the function of the cytoskeleton, or which inhibit the delivery of membrane proteins are useful in treating cystic diseases such as Polycystic Kidney Disease.
Eleven homozygous cpk mice, raised and identified as in Example 6 were treated with 15 μl of 10 mg/ml taxol in DMSO through intraperitoneal injection beginning 11-14 days after birth. Following the first treatment, the mice were administered with the same treatment once every week thereafter. As controls, 6 cpk mice were treated with 15 μl intraperitoneal injections of DMSO beginning 10-12 days after birth and then once every week thereafter.

Another series deals with cpk mice. Put plainly: Growth and survival of cpk mice treated with taxol or methotrexate (FIG. 3B). Type of series: in vivo, mouse. The source says:
[…]. The body weights of untreated, taxol treated and methotrexate treated C57BL/6j mice between day 10 and day 45 after birth is shown in A. The body weights of untreated, taxol treated and methotrexate treated cpk mice are shown in B. Results in each group are the mean of 6 animals. Untreated and methotrexate treated cpk mice died between days 26 and 28. […].
In a related procedure I treated both normal C57BL/6 and cpk mice at 11-14 days of age with either taxol or methotrexate as described above. Six untreated mice served as controls in this experiment.

Molecules are shown by their SMILES.

With `CC(=O)O[C@H]1C(=O)[C@@]2(C)[C@H]([C@H](OC(=O)c3ccccc3)[C@]3(O)C[C@H](OC(=O)[C@H](O)[C@@H](NC(=O)c4ccccc4)c4ccccc4)C(C)=C1C3(C)C)[C@]1(OC(C)=O)CO[C@@H]1C[C@@H]2O` [Taxol], the “cyst formation (in words)” value in the series with human ADPKD cells is recorded as “reversibly inhibited in vitro cyst formation in both models”. In addition, the “survival (in words)” value in the series with homozygous cpk mice (weekly i.p., versus untreated or DMSO) is listed as “generally experienced substantially longer life spans”. Moreover, in the series with homozygous cpk mice (weekly taxol, pairs sacrificed at 120, 182 and 210 days of age), the “condition of treated polycystic mice (in words)” value is “remained active until sacrifice and attained adult size and weight, despite having palpably enlarged kidneys”. Besides, the average survival in the series with cpk mice (FIG. 3, mean of 6 animals) came to 45 ± 2 days. For the same molecule, in the series with cpk mice (cpk mice, versus DMSO or methotrexate), the “weight gain (in words)” value is reported as “gained weight at substantially the same or lower rate”. Further, the “lifespan (in words)” value with cpk mice (versus DMSO or methotrexate-treated mice) was “substantially longer lifespans”.
